This is an account of results in patent US20090325952A1, “PYRAZOLO[3,4-B]PYRIDINE COMPOUNDS, AND THEIR USE AS PDE4 INHIBITORS” (Glaxo Group Limited, priority 2006, published 2009).

Structures can show the parent of a compound that is named as a salt.

The test system of data set [1] is atopic dermatitis patients. To be noted: cited from earlier work.
In data set [2] the test system is COPD patients. To be noted: cited from earlier work.
Data set [3] has as its system COPD patients. As to conditions: cited from earlier work. The source holds these as a separate data set.
Data set [4] in a line: Gravimetric vapour sorption / moisture uptake of solid forms. Format: physicochemical. An excerpt:
In addition, water is believed to be readily lost from the Form 2 hydrate (a) on heating to only slightly above room temperature and/or (b) on reduction in the relative humidity (R^H) (e.g. water appears to be lost from the Form 2 hydrate when the R^H is reduced to 0% R^H).

For data set [5], the system named is humans with histories of allergic rhinitis. To be noted: orally 500 ug once daily for 9 days, intranasal allergen provocation (pollen extracts); cited from earlier work.
Data set [6] relates to LPS-induced pulmonary neutrophilia in rats. As to the kind of experiment: In Vivo Assay 1: LPS induced pulmonary neutrophilia in rats, intratracheal administration. Details: species or system rat. As to conditions: rats, i.t. dry powder blended in lactose; for arithmetic mean inhibition of LPS-induced pulmonary neutrophilia: about 2 hours prior to LPS. An excerpt: This assay is an animal model of acute inflammation in the lung—specifically neutrophilia induced by lipopolysaccharide (LPS)—and allows the study of putative inhibition of such neutrophilia (anti-inflammatory effect) by an intratracheally (i.t.) administered PDE4 inhibitor (“drug”). The PDE4 inhibitors are suitably in dry powder, aqueous solution or aqueous suspension form. I.t. administration is one model of inhaled administration, allowing topical delivery to the lung.
Animals: Male CD (Sprague Dawley Derived) rats supplied by Charles River, United Kingdom are housed in groups of 5 rats per cage, acclimatised after delivery for at least 7 days with bedding/nesting material regularly changed, fed on SDS diet R1 pelleted food given ad lib, and supplied with daily-changed pasteurised animal grade drinking water.
Device for dry powder administration: For these studies, a Penn Century DP-4 dry powder intratracheal (i.t.) delivery device (insufflator) is used for administration of a dry powder blend of vehicle (inhalation grade lactose) and the PDE4 inhibitor compound or salt of the invention (“drug”). Each device is numbered and the sample loading chamber is unscrewed from the main device and weighed. The i.t. delivery needle is also weighed. The drug+lactose blend or inhalation grade lactose (vehicle control) is then added to the sample chamber and this is then re-weighed. The sample chamber is fitted back on to the main device to prevent any drug being lost. This procedure is repeated for all of the Penn century devices to be used in the study (one separate device for each animal). After dosing to the animals, the sample chambers and needles are re-weighed in order to determine the amount of sample that was expelled from the device.
Device for aqueous solution administration: A blunt dosing needle, whose forward end is slightly angled to the needle axis, is used, with a flexible plastic portex canula inserted into the needle. The portex cannula is inserted into the lumen of the blunt stainless steel dosing needle and this is carefully inserted into the back of the animal's throat and into the trachea via the larynx. A known volume (200 microlitres) of the vehicle (0.2% Tween 80™ in saline) or of the solution (or suspension) drug composition is administered into the trachea using a plastic syringe that is attached to the portex cannula and dosing needle. A new internal cannula is used for each different drug group. After dosing, the needle is removed from the trachea and the animals are removed from the table and continually observed until they recover from the effects of anaesthesia. The animals are then returned to the holding cages and given free access to food and water, and are observed and any unusual behavioural changes noted. (Aqueous suspensions can be handled generally similarly.)
Drugs and Materials: Lipopolysaccharide (LPS) (Serotype:0127:B8, e.g. from Sigma, UK; e.g. L3129 prepared by phenol extraction) is dissolved in phosphate-buffered saline (PBS).
For dry powder, aqueous solution or aqueous suspension administration, PDE4 inhibitors are preferably used in size-reduced (e.g. micronised) form, for example according to the Micronisation Example(s) disclosed herein.
For dry powder administration of the drug, the PDE4 inhibitor compound or salt of the invention (drug) is administered as a dry powder blended with inhalation-grade (respiratory-grade) lactose, i.e. as a dry powder composition. The target quantity of dry powder composition administered i.t. to each animal is 2 mg. This remains constant throughout the studies. To achieve different doses, blends of the drug dry powder and lactose, containing different concentrations of the PDE4 inhibitor compound or salt of the invention (drug), are prepared. […]

Data set [7] has as its system LPS-induced nasal neutrophilia in rats. As to the kind of experiment: In Vivo Assay 2: LPS induced nasal neutrophilia in rats, intranasal administration. Also noted: species or system rat. As to conditions: for inhibition (arithmetic mean) of LPS-induced nasal neutrophilia: rats, i.n. aqueous solution, about 30 minutes prior to LPS. An excerpt: This assay is an animal model of acute inflammation in the nose—specifically neutrophilia induced by lipopolysaccharide (LPS)— and allows the study of putative inhibition of such neutrophilia (anti-inflammatory effect) by an intranasally (i.n.) administered PDE4 inhibitor (“drug”). The PDE4 inhibitor is preferably in the form of an aqueous suspension or aqueous solution. Bolus, i.n. administration allows topical delivery to the nose.
Animals: Male CD rats (Sprague Dawley derived), weighing between 300-350 g are supplied by Charles River, UK and transported to the test site. On arrival at the test site, the animals are housed in groups of 4 or 5 per cage and complete a minimum acclimatisation period of 7 days. The animals are housed in solid bottomed cages using grade 8 sawdust. The bedding and nesting materials are changed 3 times per week. Diet comprises SDS diet R1 pelleted food given ad lib. Pasteurised animal grade drinking water is supplied and changed daily.
Lipopolysaccharide (Serotype: 0127:B8, e.g. available from Sigma, UK; e.g. L3129 prepared by phenol extraction) is used for all studies and is dissolved in phosphate-buffered saline (PBS).
Tween 80™ (e.g. available from Sigma e.g. 023K 01575). A mixture of 0.2% Tween 80™ in phosphate buffered saline (PBS) is prepared as vehicle for solution compositions. The Sigma catalogue 2004-2005 and The Handbook of Pharmaceutical Excipients (HPE) 4th edition 2003 pp. 479-483 define Tween 80™ as a brand of polysorbate 80 (according to HPE, polysorbate 80 is also named polyoxyethylene 20 sorbitan monooleate, i.e. having been copolymerised with about 20 moles of ethylene oxide for each mole of sorbitol and/or sorbitol anhydrides used).
The PDE4 inhibitor compound or salt of the invention (“drug”) is preferably used in size-reduced (e.g. micronised) form, for example according to the Micronisation Example(s) disclosed herein.
A solution of compound (0.7 mg/ml) is generally prepared by adding 0.2% Tween 80™ in phosphate buffered saline (PBS) to a pre-weighed micronised sample of the drug. The solution composition is sonicated, e.g. for approximately 2 min, and is observed to be a solution (if it is a solution) by visual assessment. A fixed volume of 50 microlitres (25 microlitres into each nostril) of either the drug-containing solution composition or a saline/Tween 80™ vehicle is administered to all animals. Each animal weighs, on average, 350 g. To achieve a dose of 100 μg/kg (100 ug/kg), each animal receives a total of 35 μg (35 ug) of the drug. The dose volume is 50 microlitres (25 microlitres to each nostril), and therefore a concentration of 35 μg (ug) per 50 microlitres (0.7 mg/ml) is prepared. To achieve lower dose concentrations, serial dilutions are prepared in saline/Tween 80™
Intranasal dosing with the PDE4 inhibitor (drug): Rats are anaesthetised by placing the animals in a sealed Perspex chamber and exposing them to a gaseous mixture of isofluorane (5%), nitrous oxide (2 L/min) and oxygen (1 L/min). Once anaesthetised, the animals are i.n. dosed with vehicle or PDE4 inhibitor aqueous compositions using a 10-100-microlitre-range Gilson pipette and plastic disposable tip. A volume of 25 microlitres is administered into each nostril by carefully inserting the pipette tip into the nostril and dispensing the required volume. When the dosing procedure is completed, the animal is returned to the cage and observed at regular intervals until it had recovered from the effects of the anaesthetic. […]

Consider `Nc1nc2c([nH]1)c(=O)n(CC1CC1)c(=O)n2CC1CC1` [cipamfylline], for which the “efficacy in the treatment of atopic dermatitis patients” value in data set [1] (0.15% cream, versus vehicle and hydrocortisone 17-butyrate (0.1%) cream) is reported as “significantly more effective than vehicle, but significantly less effective than hydrocortisone 17-butyrate (0.1%) cream”.
For `COc1ccc([C@]2(C#N)CC[C@@H](C(=O)O)CC2)cc1OC1CCCC1` [cilomilast], the antiinflammatory effects result in data set [2] is “appears to have antiinflammatory effects”. In addition, the “forced expiratory volume in 1 s (FEV1)” value in data set [3] (15 mg orally twice daily) is listed as “appears to improve”.
Regarding `CCc1nc2c(cnn2CC)c(NC2CCOCC2)c1CNC(=O)c1ccc(NC(=O)CCCCCCCN(C)CCO)cc1` [N-{[1,6-diethyl-4-(tetrahydro-2H-pyran-4-ylamino)-1H-pyrazolo[3,4-b]pyridin-5-yl]methyl}-4-({8-[(2-hydroxyethyl)(methyl)amino]octanoyl}amino)benzamide monohydrochloride], the “propensity to take up water as relative humidity increases” value in data set [4] (compared with Form 1 anhydrate) was “greater propensity to take up water than the crystalline monohydrochloride Form 1 anhydrate”.
For `COc1ccc(C2CNC(=O)NC2)cc1O[C@H]1C[C@@H]2CC[C@H]1C2` [CP80,633], the inflammatory parameters result in data set [1] (atopic dermatitis patients, 0.5% ointment, twice daily topical application) is on record as “reductions of inflammatory parameters”.
As for `CCc1nc2c(cnn2CC)c(NC2CCOCC2)c1CNC(=O)c1ccc(NC(=O)CCCCCCCN(C)CCO)cc1` [N-{[1,6-Diethyl-4-(tetrahydro-2H-pyran-4-ylamino)-1H-pyrazolo[3,4-b]pyridin-5-yl]methyl}-4-({8-[(2-hydroxyethyl)(methyl)amino]octanoyl}amino)benzamide monohydrochloride], the “moisture uptake, % weight gain” value in data set [4] (25° C., RH increased from 30% to 75%) was “about 0.5%”.
For `O=C(Nc1c(Cl)cncc1Cl)c1ccc(OC(F)F)c(OCC2CC2)c1` [roflumilast], the “rhinal airflow during the treatment period (compared to placebo)” value in data set [5] was “effective in improving rhinal airflow”. Also, the FEV1 result in data set [3] is recorded as “small improvements”.
On to `CCc1nc2c(cnn2CC)c(NC2CCOCC2)c1CNC(=O)c1ccc(NC(=O)CCCCCCCN(C)CCO)cc1` [Example 1A2, N-{[1,6-diethyl-4-(tetrahydro-2H-pyran-4-ylamino)-1H-pyrazolo[3,4-b]pyridin-5-yl]methyl}-4-({8-[(2-hydroxyethyl)(methyl)amino]octanoyl}amino)benzamide monohydrochloride], for which the “arithmetic mean inhibition of LPS-induced pulmonary neutrophilia” value in data set [6] (about 10 micrograms/kg) is reported as “about 29%”; in data set [6] (about 30 micrograms/kg), “about 44%”; in data set [6] (about 100 micrograms/kg) it was “about 39%”; in data set [6] (about 300 micrograms/kg), “about 55%”. In addition, in data set [6] (about 100 micrograms/kg, about 4 hours prior to LPS), the “inhibition of LPS-induced pulmonary neutrophilia” value is reported as “about 60%”. In addition, the “estimated ED50 for inhibition of LPS-induced nasal neutrophilia” value in data set [7] (rat, i.n., micronised, aqueous solution in 0.2% Tween 80 in PBS, about 30 minutes prior to LPS challenge) is on record as “approximately 4.6 micrograms/kg body weight”. Moreover, the “inhibition (arithmetic mean) of LPS-induced nasal neutrophilia” value in data set [7] (about 1 micrograms/kg) is “essentially no inhibition”; in data set [7] (about 3 micrograms/kg), “small and non-statistically-significant inhibition”; in data set [7] (about 10 micrograms/kg) it was “about 62%”; in data set [7] (about 100 micrograms/kg) it was “about 79%”.
